In brackets after ≈: the same amount, converted by molar mass.
Conditions: buffer; pH 7.4; 200.0 µM

First: NC1=NC(=O)CC(C(=O)Nc2cccc3ccccc23)S1 (configuration not stated)
Second: CCCc1nc2ccccc2c(=O)n1CCc1ccccc1
The solubility kinetic of the first is higher: > 44.9 µg/mL for the first, 1.7 µg/mL (≈ 5.81 µM) for the second.

`COc1ccccc1C1(CCNC(C)c2cccs2)CCOC(C(C)C)C1` (configuration not stated) and `COc1ccccc1NC(=O)CCCCC(=O)Nc1ccccc1OC` are within 1.5-fold of each other in solubility kinetic: 54.4 µg/mL (≈ 140 µM) for the first, 41.8 µg/mL (≈ 117 µM) for the second.

Compared with `Cc1ccc(NC(=O)C=NOCC(=O)Nc2cc(C)cc(C)c2)cc1`, `CC(C)c1ccc(NC(=S)Nc2ccc3[nH]c(=O)[nH]c3c2)cc1` is 4.8-fold higher in solubility kinetic: 3.5 µg/mL (≈ 10.3 µM) for the first, 16.7 µg/mL (≈ 51.2 µM) for the second.

First: COc1ccc(C(=O)N=c2sc3ccccc3n2C)cc1
Second: COc1ccc(N2C(=O)C(C)C(Cc3ccc(C)cc3)C2=O)cc1 (configuration not stated)
The solubility kinetic of the first is lower: < 0.3 µg/mL for the first, 2.4 µg/mL (≈ 7.42 µM) for the second.

Compared with `CCc1ccccc1NC(=O)NCCN1CCCCC1`, `O=C(N1CCCCC1)C1(c2ccccc2)CCCCC1` is lower in solubility kinetic: > 41.3 µg/mL for the first, 3.6 µg/mL (≈ 13.3 µM) for the second.

`NC1C2CN3CCN(C2)CC1(c1ccccc1)C3` (configuration not stated) and `CC(C)(CO)CNC1CCCN(C2Cc3ccccc3C2)C1` (configuration not stated) cannot be ordered by solubility kinetic: > 36.5 µg/mL for the first, 40.5 µg/mL (≈ 134 µM) for the second.

First: CN(C)/C=C/C(=O)c1ccc2noc(-c3ccccc3)c2c1
Second: O=C(O)c1c2c(nc3ccccc13)/C(=C/c1ccc(O)cc1)CCC2
The solubility kinetic of the first is lower: 15.1 µg/mL (≈ 51.7 µM) for the first, > 49.7 µg/mL for the second.

Compared with `CCOc1ccc(S(=O)(=O)N2CCCCC2)c(C)c1C`, `Cc1c(NS(=O)(=O)c2cccc(C(=O)N3CCC(C)CC3)c2)c(=O)n(-c2ccccc2)n1C` is higher in solubility kinetic: 9.7 µg/mL (≈ 32.6 µM) for the first, > 70.3 µg/mL for the second.

Compared with `O=C(Nc1ccc(NC(=O)C2CCCCC2)nc1)c1cccc(F)c1`, `O=C(CSc1nnc(NC(=O)c2c(F)cccc2F)s1)NC1CC1` is higher in solubility kinetic: 1.2 µg/mL (≈ 3.52 µM) for the first, > 55.6 µg/mL for the second.

Going from `CCOC(=O)C1=C(C)NC(SC)=C(C#N)C1CC(C)C` (configuration not stated) to `COc1ccc2oc(C(=O)OCC(=O)NC3CC3)c(C)c2c1`, the solubility kinetic rises from 2.3 µg/mL (≈ 7.81 µM) to 10.3 µg/mL (≈ 34 µM) (4.5-fold).

`Cc1ccnc(NC(=O)c2ccco2)n1` and `O=C(NCc1cccnc1)Nc1ccc(Br)cc1` cannot be ordered by solubility kinetic: > 30.5 µg/mL for the first, > 45.9 µg/mL for the second.

Going from `Cc1ccc(CNC(=O)Nc2ccc(F)cc2F)n1C` to `CC(=O)Nc1ccc2nc(-c3cccn3C)[nH]c2c1`, the solubility kinetic falls from > 41.9 µg/mL to 33.4 µg/mL (≈ 131 µM).

Compared with `Cc1cc(C(=O)CN2C(=O)NC3(CCC(C)CC3)C2=O)c(C)n1C` (configuration not stated), `Cc1cc(N)nc(SCC(=O)N2C(C)CCCC2C)n1` (configuration not stated) is 2.9-fold higher in solubility kinetic: 13.3 µg/mL (≈ 40.1 µM) for the first, 38.3 µg/mL (≈ 130 µM) for the second.

First: COc1ccc(S(=O)Cc2ccc(C(=O)NC3CC3)o2)cc1 (configuration not stated)
Second: CC(C)NC(=O)c1ccc(COc2cc(Cl)ccc2Cl)o1
The solubility kinetic of the first is higher: > 47.9 µg/mL for the first, 2.8 µg/mL (≈ 8.53 µM) for the second.

`O=S(=O)(Nc1ccc2c(c1)OCO2)c1ccc(F)c(F)c1` and `Cc1ccc(-n2c(C)nc3cc(Cl)ccc3c2=O)nc1` cannot be ordered by solubility kinetic: > 47 µg/mL for the first, > 42.9 µg/mL for the second.

`CC1(C)CC(=O)N(c2ccc(Cl)cc2Cl)C(=O)C1` and `CC(=O)c1cccc(NC(=O)C(C)OC(=O)C2=NNC(=O)CC2)c1` (configuration not stated) cannot be ordered by solubility kinetic: > 42.9 µg/mL for the first, > 49.7 µg/mL for the second.

Going from `CCCOC(=O)Nc1cc(OC)ccc1[N+](=O)[O-]` to `COCC(=O)N1CCCC(CNS(=O)(=O)c2ccc(OC)cc2)C1` (configuration not stated), the solubility kinetic rises from 5.7 µg/mL (≈ 22.4 µM) to > 53.5 µg/mL.

`Br.N=C1CCCN1CC(=O)c1cccs1` and `C=Cn1cc[n+](CC(=O)c2ccc(Br)s2)c1.[Br-]` are within 1.5-fold of each other in solubility kinetic: 39 µg/mL for the first, 53 µg/mL for the second.

Going from `CC(C)(C)c1ccc(C(=O)N2CCN(Cc3ccccc3)CC2)cc1` to `CC(C)[C@H](NC(N)=O)C(=O)Nc1ccc(OCc2ccccc2)cc1`, the solubility kinetic falls from 28.5 µg/mL (≈ 84.7 µM) to 3 µg/mL (≈ 8.79 µM) (9.5-fold).

First: CCc1nc(SCC(=O)OC)c2c3c(sc2n1)COC(C)(C)C3
Second: COc1ccc(CC(=O)NCC(C)(C)N2CCOCC2)cc1
The solubility kinetic of the first is lower: 7.4 µg/mL (≈ 21 µM) for the first, > 46 µg/mL for the second.

First: CC1CC1C(=O)OCC(=O)NC(=O)NC12CC3CC(CC(C3)C1)C2 (configuration not stated)
Second: O=C(COc1ccc(C(=O)c2ccc(F)cc2)cc1)Nc1cccc(S(=O)(=O)N2CCOCC2)c1
The solubility kinetic of the first is 5.4-fold higher: 22.5 µg/mL (≈ 67.3 µM) for the first, 4.2 µg/mL (≈ 8.42 µM) for the second.

Going from `Nc1nc(NCc2ccco2)nc(Nc2ccccc2)c1[N+](=O)[O-]` to `O=C1C(Cc2cnc[nH]2)NC(=S)N1c1ccccc1` (configuration not stated), the solubility kinetic rises from 0.4 µg/mL (≈ 1.23 µM) to 37.4 µg/mL (≈ 137 µM) (93-fold).

First: CC(=O)c1sc(C(C)(C)C)cc1NC(=O)c1ccccc1C(=O)O
Second: CC(=O)c1cc(C)ccc1OC(=O)c1ccncc1
The solubility kinetic of the first is higher: > 51.8 µg/mL for the first, 35.8 µg/mL (≈ 140 µM) for the second.

With `O=C(CSc1nc2ccccc2o1)N1CCOCC1` the solubility kinetic was > 41.7 µg/mL.
